In publication PMC8597724, “Kanglemycin A Can Overcome Rifamycin Resistance Caused by ADP-Ribosylation by Arr Protein” (Antimicrobial Agents and Chemotherapy, 2021):
pKd: −log10 of the molar value.

Target: T1, ArrMab (Mycobacteroides abscessus, UniProt B1MH05)
T1 construct: gene MAB_0591; N-terminal 6xHis tag (pET28), expressed in E. coli T7 Express; RED-NHS amine-labelled for MST
Assay: microscale thermophoresis
Type: binding
Source text: microscale thermophoresis on ArrMab | ArrMab bound both antibiotics with the same Kd

T1 sequence (B1MH05 entry or part of it): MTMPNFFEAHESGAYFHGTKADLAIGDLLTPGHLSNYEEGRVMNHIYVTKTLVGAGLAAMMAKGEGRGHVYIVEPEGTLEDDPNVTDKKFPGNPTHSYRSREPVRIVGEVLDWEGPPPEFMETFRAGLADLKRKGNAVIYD

## CO[C@H]1/C=C/O[C@@]2(C)Oc3c(C)c(O)c4c(O)c(c(/C=N/N5CCN(C)CC5)c(O)c4c3C2=O)NC(=O)/C(C)=C\C=C\[C@H](C)[C@H](O)[C@@H](C)[C@@H](O)[C@@H](C)[C@H](OC(C)=O)[C@@H]1C [rifampicin]
  pKd: 4.55
